Square brackets hold non-standard residues; d marks the D form. Ends that are not written are not given here. Bip = N[C@@H](Cc1ccc(-c2ccccc2)cc1)C(=O)O; Dip = N[C@H](C(=O)O)C(c1ccccc1)c1ccccc1; hPhe = N[C@@H](CCc1ccccc1)C(=O)O
What was measured:
saphenous vein of piglet = test: PGE2-induced dilation of saphenous vein rings, organ bath assay; parameters: species or system Yorkshire piglets; details: 1 μM peptides, 1 μM PGE2; rings pre-constricted with U46619; average of 2-8 experiments
Experimental: Animals. Yorkshire piglets (2-4 days old) were used in this study, according to a protocol approved by the Animal Care Committee of the Research Centre of Ste-Justine Hospital. Briefly, animals were anesthetized with 1.5% halothane and the lower external saphenous veins removed and placed in cold Krebs buffer (pH 7.4) of the following composition (mM): NaCl 120, KCl 4.5, CaCl2 2.5, MgSO4 1.0, NaHCO3 27, KH2PO4 1.0, glucose 10, to which 1.5 U/ml heparin was added.
Organ bath assay. The saphenous veins were cleaned of extraneous tissue and cut into 4 mm rings that were placed in individual jacketed organ baths (15 ml; Radnoti Glass, Monrovia, Calif.) containing Krebs buffer and maintained at 37° C. The solution was bubbled with a mixture of 95% O2-5% CO2. In each experiment, 8 rings were used (4 from each saphenous vein) and were equilibrated for 60 min under 2.0 gr passive tension, with frequent washing and tension adjustment. Tension was measured by force-displacement transducers and was recorded on a computerized data acquisition system using the Work Bench software (both from Kent Scientific, Litchfield, Conn.).
Experimental protocol. In a first set of experiments, the relative distribution of dilatory EP receptor subtypes was ascertained using a combination of EP receptor agonists and antagonists. The vasodilatory response of the lower external saphenous veins to PGE2 appears to result from the stimulation of 30% EP2 and 70% EP4. Tissues were initially challenged with 2×10^−7 U46619 which induced a 1.5 to 2.0 gr increase in tension. […] When the response to U46619 reached a steady state, agents were added. When no response to the agents were observed, a period of 10 minutes was allowed to insure proper distribution of the agents in the tissue. Dose-response curves to PGE2 (10^−10−10^−6 M) were then obtained in the presence of absence of each of the tested drugs.
The results are average of 2-8 experiments. The results are tabulated as percent reversal of 1 μM PGE2-induced […] in the presence of 1 μM peptides. The peptides shown here contain productive and effective substitutions in the parent peptide PHG 213 (SEQ ID NO:1)

EP4 receptor [1] = test: Basal and PGE2-stimulated cAMP levels in EP4/293 cells; format: cell-based, Human; details: forskolin 100 μM added for 15 min, 100 μM IBMX
Excerpt: (§1) Data are averages of four replicates.

EP4 receptor [2] = target: EP4 receptor (Homo sapiens, UniProt P35408, P4S); test: as above; format: cell-based
Sequence of EP4 receptor (Homo sapiens, UniProt P35408, P4S) (P35408 whole entry P4S): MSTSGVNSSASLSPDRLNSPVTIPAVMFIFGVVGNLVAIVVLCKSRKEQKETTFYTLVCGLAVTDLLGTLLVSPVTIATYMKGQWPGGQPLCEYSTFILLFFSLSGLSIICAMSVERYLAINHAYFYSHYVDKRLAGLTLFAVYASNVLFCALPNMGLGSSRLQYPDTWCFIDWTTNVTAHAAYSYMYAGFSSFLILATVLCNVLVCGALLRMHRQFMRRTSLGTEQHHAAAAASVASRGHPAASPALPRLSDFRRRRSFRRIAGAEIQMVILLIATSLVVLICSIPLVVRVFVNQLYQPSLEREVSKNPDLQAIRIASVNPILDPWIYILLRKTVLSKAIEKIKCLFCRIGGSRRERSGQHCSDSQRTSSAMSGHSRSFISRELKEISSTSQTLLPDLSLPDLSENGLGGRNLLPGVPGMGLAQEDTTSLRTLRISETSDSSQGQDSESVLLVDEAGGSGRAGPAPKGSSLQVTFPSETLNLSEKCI
Excerpt: as §1

EP4 receptor [3] = test: Ocular perfusion pressure in porcine eye model (ex vivo vasomotricity of choroid); parameters: species or system newborn pig; details: PHG213 infused at 100 μM after U46619 1 μM and PGE2 1 μM
Excerpt: In order to test the efficacy of PHG213 (SEQ ID NO: 1) on EP4 receptor function, an ex vivo assay of vasomotricity of porcine choroid was used. The dilatory response to PGE2 in this vascular bed was previously shoen to be mediated by EP4 receptor (Abran, D. et al. 1997. Am. J. Physiol. 272: R995-1001).
Method: The method as described in detail by Abran et al. (1997) was followed exactly. A vortex vein from the eye of a newborn pig was catheterized with a 27-gauge needle and perfused with Kreb's solution until perfusion pressure was stable. The vasculature was first constricted with a thromboxane mimetic, U46619 (1 μM), and then PGE2 was infused at 1 μM. Once the reversal of constriction reached a plateau, then PHG213 was infused at 100 μM and the perfusion pressure was recorded.
Positive values of perfusion pressure indicate constriction whereas negative values indicate dilation of the vasculature. PGE2 reversed the constriction produced by U46619. […] Since it is known that the dilatory effects of PGE2 are predominantly mediated by EP4 receptor in choroid of the newborn pig, PHG 213 antagonized the actions of EP4 receptor and blocked the dilation produced by this receptor.

normal rats = test: Glomerular filtration rate and urinary volume in normal rats; format: in vivo, Sprague-Dawley adult rats; details: i.v. infusion 6 μmol/Kg/h
Experimental: (§2) Method: Sprague-Dawley adult rats (˜250 g) were anesthetized with 50 mg/kg pentobarbitone. Left jugular vein (for infusion) and left carotid artery (for measuring blood pressure) were catheterized and another catheter was placed at the tip of the bladder for collecting urine. Infusion of [^3H]-inulin in saline (2 μCi/Kg/h) was started and continued for 2 h to stabilize the system. Urine collection was exactly for 20 min and at 10 min mark, 0.1 ml of blood was withdrawn into heparinized tubes. Blood was centrifuged and radioactivity in plasma was counted. After 10 min and 30 min (30 min and 60 min since the start of the previous urine collection), the process was repeated. The antagonist, PHG 213, was infused in saline i.v. at 6 μmol/Kg/h for one hour before the start of first urine collection. Urinary volume (UV) is calculated and expressed as μl of urine/h corrected for the weight of the animal. GFR was calculated as the ratio of urinary […] corrected for the volume of the urine and the weight of the animal.

diabetic rats = test: Glomerular filtration rate and urinary volume in streptozotocin-induced diabetic rats; format: in vivo, Sprague-Dawley adult rats; details: systemic infusion
Experimental: as §2
Method: Sprague-Dawley adult rats (˜250 g) were injected i.p. with streptozotocin (45-50 mg/Kg) and two days later, the urine was tested for glucose and proteinuria. Two weeks later, the rats that tested positive for both markers were chosen to test the effects of PHG 213 (SEQ ID NO:1) on GFR and UV using a method described above.

[4] = tested on: ductus arteriosus of fetal sheep; test: Ductus arteriosus diameter in fetal sheep by Doppler echocardiography; format: in vivo; details: 2 mg bolus followed by 1 mg/Kg infusion over 15 min
Experimental: Pregnant ewes (129-140 days of gestation) was anesthetized with ketamine (30 mg/Kg i.v.), a caesarian section was performed and the fetus exteriorized. To mimic fetal respiratory conditions, the head of the fetus was submerged in a glove filled with saline. Femoral and jugular veins were catheterized for systemic blood pressure measurements and drug infusions respectively. Ducuts arteriosus (DA) diameter was measured using Doppler echocardiography as described before (Teyssier, G. et al. 1989. J. Cardiovascular Technol. 8: 259-266). Echocardiographic measurements were performed with an Acuson 128 XP/10C real time ultrasound imaging system using 7.5 or 5-MHz transducers duplexed with a range-gated Doppler. Doppler signals were filtered by a 100-Hz high-pass filter. The DA was visualized through a left second intercostal parasternal approach. After the drugs were injected, measurements of DA diameter were repeated 3 times at 5 min intervals for the next 20-25 min.
DA was unchanged for 40 min during the stabilization period. […] PHG213, a peptide antagonist of EP4 receptor, blocked the dilatory action of the receptor which is responsible for maintaining the ductus open in the fetus.

[5] = tested on: human fetal spleen cells in coculture with fixed SaOS-2 cells; test: Osteoclastogenesis (TRAP+ cells) in coculture of human fetal spleen cells and fixed SaOS-2 cells; format: cell-based; details: PHG213 100 μM, three days; n=10
Experimental: Method: SaOs-2 cells (immortalized cell line of human osteoblasts) were grown for four days in 24-well plates in alpha-MEM medium containing 10% fetal calf serum , vitamin D3 (10^−7). Confluent SaOs-2 cells were fixed in 1% paraformaldehyde M) and dexamethasone (10^−8 M in phosphate-buffered sline (PBS) for 8 min. The cells were rinsed with PBS 4 times and alpha-MEM containing 10% fetal calf serum and vitamin D3 (10^−7 M) was added.
Two days before, spleens from human abortuses were cut into small pieces and triturated several times release the cells. The spleen cells were cultured in alpha-MEM containing 10% fetal calf serum for 2 days. Spleen cells were trypsinized, rinsed once in PBS and counted using a coulter counter. An aliquot of spleen cells (10^5 cells/well) were placed over the monolayer of fixed SaOs-2 cells for 2 h, after which PHG213 (100 μM) was added. Three days later, the cells were fixed in 4% paraformaldehyde in PBS, rinsed with water and tartarat-resistant […] (TRAP) was stained using a commercial kit (Sigma, St. Louis, Mo.). TRAP-positive cells were viewed under a microscope and counted.

1 (IFTSYECL; Peptide inhibitor of prostaglandin E2 receptor subtype EP4) [compound 1]
% blockade of PGE2 induced vasodilation (saphenous vein of piglet): 50.0%

2 (IFASYECL; Peptide inhibitor of prostaglandin E2 receptor subtype EP4) [compound 2]
% blockade of PGE2 induced vasodilation (saphenous vein of piglet): 35.0%

3 (IFTSAECL; Peptide inhibitor of prostaglandin E2 receptor subtype EP4) [compound 3]
% blockade of PGE2 induced vasodilation (saphenous vein of piglet): 20.0%

4 (IFTSYEAL; Peptide inhibitor of prostaglandin E2 receptor subtype EP4) [compound 4]
% blockade of PGE2 induced vasodilation (saphenous vein of piglet): 60.0%

5 (ILASYECL; Peptide inhibitor of prostaglandin E2 receptor subtype EP4) [compound 5]
% blockade of PGE2 induced vasodilation (saphenous vein of piglet): 60.0%

6 (IFTSYDCL; Peptide inhibitor of prostaglandin E2 receptor subtype EP4) [compound 6]
% blockade of PGE2 induced vasodilation (saphenous vein of piglet): 30.0%

7 ([Bip]TSYEAL) [compound 7]
% blockade of PGE2 induced vasodilation (saphenous vein of piglet): 65.5%

8 ([Dip]TSYEAL) [compound 8]
% blockade of PGE2 induced vasodilation (saphenous vein of piglet): 64.5%

9 ([hPhe]TSYEAL) [compound 9]
% blockade of PGE2 induced vasodilation (saphenous vein of piglet): 34.0%

C=C[C@@]1(C)CC(=O)[C@]2(O)[C@@]3(C)[C@@H](O)CCC(C)(C)[C@@H]3[C@H](O)[C@H](OC(C)=O)[C@@]2(C)O1 [FSK, forskolin, reference compound]
CAMP (pmol/ml/10^5 cells) (EP4 receptor [1]): >270 pmol/ml/10^5 cells

CCCCC[C@H](O)/C=C/[C@H]1[C@H](O)CC(=O)[C@@H]1C/C=C\CCCC(=O)O [PGE2, Prostaglandin E2, reference compound]
CAMP (pmol/ml/10^5 cells) (EP4 receptor [2]; PGE2 1 μM added for 15 min, 100 μM IBMX): >270 pmol/ml/10^5 cells

PHG213: peptide antagonist of EP4 receptor, parent peptide, D-amino acids (IFTSYECL; also: D-amino acids, places not given here)
% inhibition of basal cAMP levels (EP4 receptor [2]; PHG213 100 μM with 100 μM IBMX for 1 h): 60.7% | CAMP (pmol/ml/10^5 cells) (EP4 receptor [2]; basal, PHG213 100 μM with 100 μM IBMX for 1 h, vehicle 69.9): 27.5 pmol/ml/10^5 cells | Block of the dilatory effect of PGE2 on ocular perfusion pressure (EP4 receptor [3]): blocked this dilatory effect of PGE2 completely | Glomerular filtration rate (GFR) increase (normal rats): 157% | Mean blood pressure (normal rats): not significantly altered | Urinary flow rate (UV) increase (normal rats): 2.3 fold | GFR (diabetic rats): increased | Mean blood pressure (diabetic rats): not significantly altered | UV (diabetic rats): increased | Ductus arteriosus (DA) diameter [4]: started to constrict and continued for another 15 min and was irreversible | Reduction of number of TRAP-positive cells (osteoclasts) [5]: half

Source: patent US7442763B2, “Compositions for treating abnormalities in glomerular filtration, patent ductus arteriosus and osteoporosis” (Hopital Sainte-Justine, priority 1999, dated 2008)
